Assay: Pharmacokinetic test in SD rats
Assay type: in vivo
Conditions: rats; for AUC(0-inf) / AUC(0-t) / Cmax / MRT last: 10 mg/kg; for Plasma concentration: 10 mg/kg p.o.
Description: Experimental animals: healthy adult SD rats, male, 6 in total, divided into two groups, with 3 rats per group, aged 6-8 weeks; and body weight approximately 200-300 g. The rats were fed in rat cages, and fasted (for at least 10 hours) with free access to water one day before the experiment. On the day of experiment, the rats were weighed and marked at the tail respectively. Blank blood samples were collected respectively before drug administration. The blood samples were collected via the tail vein. Drug administration method: intragastric gavage (p.o.): intragastric gavage with drug suspension; preparation of drug suspension: approximately 10 mg of test sample was accurately weighed, dissolved in 5% DMSO (calculated proportion), and vortexed with 10% solutol HS-15 and 85% saline to obtain a suspension with a concentration of 1.0 mg/mL; and the suspension was freshly prepared before use.
Sample collection: the rats were administered a single oral dose of 10mg/kg via intragastric gavage (p.o.). Timing was started immediately after the administration was completed, and blood samples were collected at 0.5, 1, 2, 4, 6, 8, 12 and 24 hours after administration. A volume of 0.1mL of whole blood was collected into EDTA-Na2 anticoagulant tubes, mixed by inverting 3-4 times, centrifuged at 10000 g for 5 minutes at 4°C to separate the plasma, and then the plasma was stored at -80 °C until testing. The blood samples were collected via the tail vein.
Sample preparation: 1) the samples were thawed, and 15 µL of unknown plasma samples before or after administration, standard series solutions, and single blank and double blank samples were respectively transferred into 1.5 mL centrifuge tubes. 2) 15 µL of protein precipitant (methanol) and 400 µL of internal standard solution (verapamil in methanol, approximately 10 ng/mL) were added to each sample sequentially, vortexed for 2 minutes, and then centrifuged at 4°C and 12000 rpm for 10 minutes. 3) The supernatant was collected for LC-MS/MS detection.
Analytical conditions: liquid chromatography conditions: liquid chromatography system: Shimadzu Nexera X2; chromatographic column: Agilent ZORBAX XDB-C18 3.5 (2.1 × 50 mm); column temperature: 35°C; mobile phase: A-5% acetonitrile (0.1% formic acid in water), B-95% acetonitrile (0.1% formic acid in water); injection volume: 3 µL; and
flow rate: 0.5 mL/min. Gradient elution was employed, and an elution program can be seen in the table below.
Mass spectrometry conditions: mass spectrometric analysis was carried out using an electrospray ionization (ESI) source in a positive ion mode with multiple reaction monitoring (MRM). The mass spectrometer ion source parameters and compound detection parameters can be seen in the table below.
PK parameter processing: pharmacokinetic (PK) parameters were calculated according to a plasma concentration from individual plasma concentration and corresponding sampling time data using Phoenix WinNonlin software with a non-compartmental model. (1) The PK parameters used for pharmacokinetic evaluation included: Cmax, AUC0-t, AUC0-∞, Tmax and t1/2.
(2) The parameters used for bioequivalence evaluation: Cmax, AUC0-t and AUC0-∞ were used for the bioequivalence evaluation.
Cmax: maximum plasma concentration measured within specified period, presented as measured value.
Tmax: time measured to reach maximum plasma concentration, presented as measured value. If the maximum value occurred at more than one time point, Tmax was defined as the first time point at which this value was observed.
AUC0-t: area under plasma concentration-time curve from 0 to last time point t.
AUC0-∞: area under plasma concentration-time curve from 0 to infinity. Ct was the last measured concentration, and λz was the terminal elimination rate constant. AUC0−∞ = AUC0−t + (Ct)/(λz)AUC0−∞ = AUC0−t + (Ct)/(λz) [formula]
t1/2: elimination or terminal half-life, estimated by ln2/λz.

[1] = rat, in vivo, po, intragastric gavage 10 mg/kg, Mean
[2] = rat, in vivo, po, intragastric gavage 10 mg/kg, No. 1
[3] = rat, in vivo, po, intragastric gavage 10 mg/kg, No. 2
[4] = rat, in vivo, po, intragastric gavage 10 mg/kg, No. 3

With `C[C@@H](Nc1ccn2ncc(C3=NOC(C)(C)N3)c2n1)c1cc(F)cc(F)c1F` [crystal form A] the AUC(0-inf) [1] was 4800 ng·h/mL, the AUC(0-t) [1] was 4730 ng·h/mL and the Cmax [1] was 578 ng/mL. The MRT last [1] was 6.09 h, the AUC(0-inf) [2] was 4390 ng·h/mL and the AUC(0-t) [2] was 4320 ng·h/mL. The Cmax [2] was 652 ng/mL, the MRT last [2] was 6.09 h and the AUC(0-inf) [3] was 3580 ng·h/mL. For the same compound, the AUC(0-t) [3] was 3550 ng·h/mL, the Cmax [3] was 459 ng/mL and the MRT last [3] was 5.52 h. It also gave an AUC(0-inf) [4] of 6440 ng·h/mL, an AUC(0-t) [4] of 6330 ng·h/mL and a Cmax [4] of 623 ng/mL. It also gave an MRT last [4] of 6.66 h, a Tmax [2] of 4 h and a Plasma concentration (0.5 h, Mean) of 224 ng/mL. The Plasma concentration (0.5 h, No. 1) was 220 ng/mL, the Plasma concentration (0.5 h, No. 2) was 168 ng/mL and the Plasma concentration (0.5 h, No. 3) was 285 ng/mL. For the same compound, the Plasma concentration (1 h, Mean) was 300 ng/mL, the Plasma concentration (1 h, No. 1) was 170 ng/mL and the Plasma concentration (1 h, No. 2) was 257 ng/mL. For the same compound, the Plasma concentration (1 h, No. 3) was 474 ng/mL, the Plasma concentration (2 h, Mean) was 457 ng/mL and the Plasma concentration (2 h, No. 1) was 448 ng/mL. For the same compound, the Plasma concentration (2 h, No. 2) was 453 ng/mL, the Plasma concentration (2 h, No. 3) was 470 ng/mL and the Plasma concentration (4 h, Mean) was 578 ng/mL. The Plasma concentration (4 h, No. 1) was 652 ng/mL, the Plasma concentration (4 h, No. 2) was 459 ng/mL and the Plasma concentration (4 h, No. 3) was 623 ng/mL. The Plasma concentration (6 h, Mean) was 395 ng/mL, the Plasma concentration (6 h, No. 1) was 307 ng/mL and the Plasma concentration (6 h, No. 2) was 277 ng/mL. The Plasma concentration (6 h, No. 3) was 602 ng/mL, the Plasma concentration (8 h, Mean) was 312 ng/mL and the Plasma concentration (8 h, No. 1) was 240 ng/mL. For the same compound, the Plasma concentration (8 h, No. 2) was 238 ng/mL, the Plasma concentration (8 h, No. 3) was 459 ng/mL and the Plasma concentration (12 h, Mean) was 93.8 ng/mL. The Plasma concentration (12 h, No. 1) was 88.3 ng/mL, the Plasma concentration (12 h, No. 2) was 47.2 ng/mL and the Plasma concentration (12 h, No. 3) was 146 ng/mL. It also gave a Plasma concentration (24 h, Mean) of 12.7 ng/mL, a Plasma concentration (24 h, No. 1) of 11.6 ng/mL and a Plasma concentration (24 h, No. 2) of 5.25 ng/mL. The Plasma concentration (24 h, No. 3) was 21.3 ng/mL, the HL_ (intragastric gavage 10 mg/kg, Mean) was 3.51 h and the HL_ (intragastric gavage 10 mg/kg, No. 1) was 3.76 h. The HL_ (intragastric gavage 10 mg/kg, No. 2) was 3.07 h and the HL_ (intragastric gavage 10 mg/kg, No. 3) was 3.70 h.
